Reference: patent US8034940B2, “Modulators of glucocorticoid receptor, AP-1, and/or NF-κB activity and use thereof” (Bristol-Myers Squibb Company, priority 2006, dated 2011)

Target: T1, human full-length glucocorticoid receptor (Homo sapiens, UniProt P04150)
T1 sequence (P04150 1-777): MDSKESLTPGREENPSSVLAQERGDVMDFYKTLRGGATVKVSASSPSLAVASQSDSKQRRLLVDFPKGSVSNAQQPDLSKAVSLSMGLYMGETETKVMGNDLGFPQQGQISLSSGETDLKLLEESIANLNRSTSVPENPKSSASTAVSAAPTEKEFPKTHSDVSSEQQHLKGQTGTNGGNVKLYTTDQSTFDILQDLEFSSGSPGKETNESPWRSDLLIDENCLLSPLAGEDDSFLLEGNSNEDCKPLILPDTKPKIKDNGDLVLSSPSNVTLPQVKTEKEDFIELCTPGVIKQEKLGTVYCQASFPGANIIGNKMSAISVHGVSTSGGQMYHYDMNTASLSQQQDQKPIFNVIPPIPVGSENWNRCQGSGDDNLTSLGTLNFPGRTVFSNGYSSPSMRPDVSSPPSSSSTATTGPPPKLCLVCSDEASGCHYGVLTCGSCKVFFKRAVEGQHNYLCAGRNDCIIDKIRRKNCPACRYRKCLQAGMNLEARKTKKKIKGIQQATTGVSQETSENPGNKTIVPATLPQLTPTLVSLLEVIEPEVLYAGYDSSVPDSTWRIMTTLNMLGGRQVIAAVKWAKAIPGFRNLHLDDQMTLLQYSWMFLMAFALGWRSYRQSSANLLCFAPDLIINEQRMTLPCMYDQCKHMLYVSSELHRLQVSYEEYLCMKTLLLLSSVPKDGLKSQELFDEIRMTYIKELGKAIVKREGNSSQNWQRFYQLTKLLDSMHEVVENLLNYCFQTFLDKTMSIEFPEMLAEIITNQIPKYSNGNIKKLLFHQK
Assay: Glucocorticoid Receptor Binding Assay (I), fluorescence polarization, Fluormone GS Red
Parameters: purified human recombinant full-length glucocorticoid receptor; purchased Invitrogen Part #2893
Conditions: GR Binding Assay (I); read-out: GR (Ki, nM) (GR Binding Assay (I))
Experimental: Glucocorticoid Receptor Binding Assay (I)^a
Briefly, purified human recombinant full-length glucocorticoid receptor (2 nM) was mixed with fluorescently labeled glucocorticoid (1 nM Fluormone GS Red) in the presence or absence of test compound. After two hour incubation at room temperature in the dark, the fluorescence polarization (FP) of the samples was measured. […] Test compounds were analyzed in the concentration range from 8.5E-05 μM to 5 μM.

Row | Ki [nM] | SMILES
1 | 180 | CN1CCN(C(=O)c2ccc(-c3ccc4c(n3)Oc3ccccc3[C@@H]4C(C)(C)C(=O)Nc3nncs3)cc2)CC1 [Example 256]
2 | 18.2 | CCN(CC)C(=O)c1ccc(-c2ccc3c(n2)Oc2ccccc2[C@@H]3C(C)(C)C(=O)Nc2nncs2)cc1OC [Example 262]
3 | 126 | COc1cc(-c2ccc3c(n2)Oc2ccccc2[C@@H]3C(C)(C)C(=O)Nc2nncs2)ccc1C(=O)N1CCCCC1 [Example 265]
4 | 9.45 | CC1CCN(C(=O)c2ccc(-c3ccc4c(n3)Oc3ccccc3[C@@H]4C(C)(C)C(=O)Nc3nncs3)cc2)CC1 [Example 268]
5 | 14.7 | CC(C)(C(=O)Nc1nncs1)[C@H]1c2ccccc2Oc2nc(-c3ccc(C(=O)N4CCC(O)CC4)cc3)ccc21 [Example 269]
6 | 218 | CC1(C)CCCN(C(=O)c2ccc(-c3ccc4c(n3)Oc3ccccc3[C@@H]4C(C)(C)C(=O)Nc3nncs3)cc2)C1 [Example 271]
7 | 17.4 | CC(C)(C(=O)Nc1nncs1)[C@H]1c2ccccc2Oc2nc(-c3ccc(C(=O)N4CCC[C@@H](O)C4)cc3)ccc21 [Example 284]
8 | 16.8 | CC(C)(C(=O)Nc1nncs1)[C@H]1c2ccccc2Oc2nc(-c3ccc(C(=O)N4CCCC(F)(F)C4)cc3)ccc21 [Example 287]
9 | > 1150 | CN1CCCN(C(=O)c2ccc(-c3ccc4c(n3)Oc3ccccc3[C@@H]4C(C)(C)C(=O)Nc3nncs3)cc2)CC1 [Example 297]
10 | 25.8 | CC(C)(C(=O)Nc1nncs1)[C@H]1c2ccccc2Oc2nc(-c3ccc(C(=O)N4CCNC(=O)CC4)cc3)ccc21 [Example 311]
11 | 30.6 | CNC(=O)C1CCN(C(=O)c2ccc(-c3ccc4c(n3)Oc3ccccc3[C@@H]4C(C)(C)C(=O)Nc3nncs3)cc2)CC1 [Example 321]
12 | 18.9 | CC(C)(C(=O)Nc1nncs1)[C@H]1c2ccccc2Oc2nc(-c3ccc(C(=O)N4CCCC(=O)CC4)cc3)ccc21 [Example 322]
13 | 3.69 | CC(C)(C(=O)Nc1nncs1)[C@H]1c2ccccc2Oc2nc(-c3ccc(C(=O)N4CCCOCC4)cc3)ccc21 [Example 323]
14 | 5.63 | COc1cc(-c2ccc3c(n2)Oc2ccccc2[C@@H]3C(C)(C)C(=O)Nc2nncs2)ccc1C(=O)N(C)C [Example 347]
15 | 14.6 | CNC(=O)c1ccc(-c2ccc3c(n2)Oc2ccccc2[C@@H]3C(C)(C)C(=O)Nc2nncs2)cc1OC [Example 361]
16 | 22.3 | CC(C)(C(=O)Nc1nnc(C(F)(F)F)s1)[C@H]1c2ccccc2Oc2nc(-c3ccc(C(=O)N4CCCC4)c(F)c3)ccc21 [Example 412]
17 | 37.7 | CC(C)(C(=O)NC1=NC(=O)CS1)[C@H]1c2ccccc2Oc2nc(-c3ccc(C(=O)N4CCCC4)c(F)c3)ccc21 [Example 413]
18 | 589 | CC(C)(C(=O)Nc1cnns1)[C@H]1c2ccccc2Oc2nc(-c3ccc(C(=O)N4CCCC4)c(F)c3)ccc21 [Example 414]

The remaining lines, values behind:

Row | SMILES | Ki [nM]
19 | COC[C@@H]1CCCN1C(=O)c1ccc(-c2ccc3c(n2)Oc2ccccc2[C@@H]3C(C)(C)C(=O)Nc2nncs2)cc1 [Example 272] | 12.6
20 | CC(C)(C(=O)Nc1nncs1)[C@H]1c2ccccc2Oc2nc(-c3ccc(C(=O)N4CCC(Cc5ccccc5)CC4)cc3)ccc21 [Example 278] | 30.5
21 | CC(C)(C(=O)Nc1nncs1)[C@H]1c2ccccc2Oc2nc(-c3ccc(C(=O)N4CCC(CO)CC4)cc3)ccc21 [Example 279] | 20.8
22 | CC(C)(C(=O)Nc1nncs1)[C@H]1c2ccccc2Oc2nc(-c3ccc(C(=O)N4CCC(c5ccccc5)CC4)cc3)ccc21 [Example 281] | 33.5
23 | CC(C)(C(=O)Nc1nncs1)[C@H]1c2ccccc2Oc2nc(-c3ccc(C(=O)N4CCC[C@H]4C(N)=O)cc3)ccc21 [Example 282] | 13.4
24 | CCCCN(C)C(=O)c1ccc(-c2ccc3c(n2)Oc2ccccc2[C@@H]3C(C)(C)C(=O)Nc2nncs2)cc1 [Example 292] | 10.8
25 | CC(C)(C(=O)Nc1nncs1)[C@H]1c2ccccc2Oc2nc(-c3ccc(C(=O)N4CCNC(=O)C4)cc3)ccc21 [Example 296] | 19.1
26 | CN(CCc1ccccn1)C(=O)c1ccc(-c2ccc3c(n2)Oc2ccccc2[C@@H]3C(C)(C)C(=O)Nc2nncs2)cc1 [Example 299] | 13.3
27 | CN(CCOC(C)(C)C)C(=O)c1ccc(-c2ccc3c(n2)Oc2ccccc2[C@@H]3C(C)(C)C(=O)Nc2nncs2)cc1 [Example 302] | 126
28 | CC(C)(C(=O)Nc1nncs1)[C@H]1c2ccccc2Oc2nc(-c3ccc(C(=O)N(CCO)CCO)cc3)ccc21 [Example 304] | 149
29 | CN(C)[C@H]1CCN(C(=O)c2ccc(-c3ccc4c(n3)Oc3ccccc3[C@@H]4C(C)(C)C(=O)Nc3nncs3)cc2)C1 [Example 308] | 313
30 | CN(C(=O)c1ccc(-c2ccc3c(n2)Oc2ccccc2[C@@H]3C(C)(C)C(=O)Nc2nncs2)cc1)C1CCS(=O)(=O)C1 (stereo partly drawn) [Example 313] | 4.65
31 | CC(C)CC1CCCN1C(=O)c1ccc(-c2ccc3c(n2)Oc2ccccc2[C@@H]3C(C)(C)C(=O)Nc2nncs2)cc1 (stereo partly drawn) [Example 317] | 23.7
32 | CN(C)C(=O)CN(C)C(=O)c1ccc(-c2ccc3c(n2)Oc2ccccc2[C@@H]3C(C)(C)C(=O)Nc2nncs2)cc1 [Example 319] | 110
33 | CCN(CCO)C(=O)c1ccc(-c2ccc3c(n2)Oc2ccccc2[C@@H]3C(C)(C)C(=O)Nc2nncs2)cc1 [Example 320] | 13.1
34 | CN(CCC#N)C(=O)c1ccc(-c2ccc3c(n2)Oc2ccccc2[C@@H]3C(C)(C)C(=O)Nc2nncs2)cc1F [Example 326] | 10.5
35 | CN(CC(=O)O)C(=O)c1ccc(-c2ccc3c(n2)Oc2ccccc2[C@@H]3C(C)(C)C(=O)Nc2nncs2)cc1 [Example 338] | 312
36 | CCCN(C)C(=O)c1ccc(-c2ccc3c(n2)Oc2ccccc2[C@@H]3C(C)(C)C(=O)Nc2nncs2)cc1Cl [Example 346] | 3.04
37 | CC(C)(C(=O)Nc1nncs1)[C@H]1c2ccccc2Oc2nc(-c3ccc(C(=O)NC4CCCC4)cc3)ccc21 [Example 351] | 147
38 | CC(C)(C)NC(=O)c1ccc(-c2ccc3c(n2)Oc2ccccc2[C@@H]3C(C)(C)C(=O)Nc2nncs2)cc1 [Example 352] | 42.1

Row | SMILES | Ki [nM]
39 | CC(C)NC(=O)c1ccc(-c2ccc3c(n2)Oc2ccccc2[C@@H]3C(C)(C)C(=O)Nc2nncs2)cc1 [Example 353] | 13
40 | COCCNC(=O)c1ccc(-c2ccc3c(n2)Oc2ccccc2[C@@H]3C(C)(C)C(=O)Nc2nncs2)cc1 [Example 355] | 19.6
41 | CCCNC(=O)c1ccc(-c2ccc3c(n2)Oc2ccccc2[C@@H]3C(C)(C)C(=O)Nc2nncs2)cc1 [Example 358] | 40.5
42 | CC(C)(C(=O)Nc1nncs1)[C@H]1c2ccccc2Oc2nc(-c3ccc(C(=O)NCCCO)cc3)ccc21 [Example 359] | 30.1
43 | CC(C)(C(=O)Nc1nncs1)[C@H]1c2ccccc2Oc2nc(-c3ccc(C(=O)N[C@H]4CCC[C@H]4C(N)=O)cc3)ccc21 [Example 360] | 154
44 | CN(C)C(=O)c1ccc(-c2ccc3c(n2)Oc2ccccc2C3C(C)(C)C(=O)NC(C)(C)C)cc1 (stereo not drawn) [Example 362] | 805
45 | Cc1nc(NC(=O)C(C)(C)C2c3ccccc3Oc3nc(-c4ccc(C(=O)N(C)C)cc4)ccc32)sc1C (stereo not drawn) [Example 365] | 18.3
46 | CN(C)C(=O)c1ccc(-c2ccc3c(n2)Oc2ccccc2C3C(C)(C)C(=O)Nc2ccn(C)n2)cc1 (stereo not drawn) [Example 366] | 200
47 | CN(C)C(=O)c1ccc(-c2ccc3c(n2)Oc2ccccc2C3C(C)(C)C(=O)NCC(F)(F)F)cc1 (stereo not drawn) [Example 367] | 692
48 | CC(C)(C(=O)Nc1nncs1)[C@H]1c2ccccc2Oc2nc(C#N)ccc21 [Example 395] | 1.19
49 | CC(C)(C(=O)Nc1nncs1)[C@H]1c2ccccc2Oc2nc(C(=O)NCc3ccccc3)ccc21 [Example 396] | 10.6
50 | CC(=O)c1ccc2c(n1)Oc1ccccc1[C@@H]2C(C)(C)C(=O)Nc1nncs1 [Example 397] | 40.9
51 | CC(C)(C(=O)Nc1nncs1)[C@H]1c2ccccc2Oc2nc(N3CCN(C(=O)N4CCCC4)CC3)ccc21 [Example 400] | 37.3
52 | CN(C)C(=O)CNC(=O)Nc1ccc2c(n1)Oc1ccccc1[C@@H]2C(C)(C)C(=O)Nc1nncs1 [Example 402] | 699
53 | CC(C)(C(=O)Nc1nncs1)[C@H]1c2ccccc2Oc2nc(N3CCC(C(=O)N4CCCC4)CC3)ccc21 [Example 403] | 61.2
54 | Cc1ccn(-c2ccc3c(n2)Oc2ccccc2[C@@H]3C(C)(C)C(=O)Nc2nncs2)c(=O)c1 [Example 405] | 424
55 | CC(C)(C)OC(=O)N1CC=C(c2ccc3c(n2)Oc2ccccc2[C@@H]3C(C)(C)C(=O)Nc2nncs2)CC1 [Example 406] | 176
56 | CC(C)(C(=O)Nc1nncs1)[C@H]1c2ccccc2Oc2nc(C3=CCNCC3)ccc21 [Example 407] | 958
57 | CC(C)C(=O)N1CC=C(c2ccc3c(n2)Oc2ccccc2[C@@H]3C(C)(C)C(=O)Nc2nncs2)CC1 [Example 409] | 78.2
